According to patent US8975241B2, “Composition for treating and preventing obesity including high water-soluble 2-hydroxypropyl-betacyclodextrin as effective component” (Song Ho Biomed Co., Ltd., priority 2009, dated 2015):

Key:
[1] = system: mouse model with obesity caused by a high fat diet; test: Change in body weight by autonomically drinking in mouse model with obesity caused by high fat diet; type: in vivo; details: 15% (w/v) in drinking water
Procedure: Male C57BL/6J mice (Five age of the week, KRIBB, Korea) were accommodated for 1 week, and then were induced with obesity by giving a high fat diet (60% fat kcal, Research Diets) for 15 days. The weights of the animals that were induced with obesity were equally divided into 3 animals as one group. And then, the solvent-control group drank sterilized distilled water, autonomically. Hydroxypropyl-β-cyclodextrin (HPBCD) was dissolved in sterilized distilled water to be 10, 15, and 20% (W/V) concentrations for drinking autonomically. A change in body weight was daily measured to all of animals during the test; the fixed amount of feeds was provided at the day of measuring body weight, and then an amount of intake per a group (g/day) was calculated by measuring a residual amount of feeds at the next day. A change in body weight was measured during the test using α-cyclodextrin (α-CD) instead of 2-hydroxypropyl-β-cyclodextrin (HPBCD) in the same method as the above <Example 1>.

high fat diet-mouse [2] = test: Amount of feed intake by oral administration in high fat diet-mouse; type: in vivo
Procedure: Male C57BL/6J mice (Five age of the week, KRIBB, Korea) were accommodated for 1 week. And then, the weights of the animals were equally divided into 5 animals as one group. While a high fat diet (60% fat kcal) was provided, sterilized distilled water and HPBCDs with 10, 20, and 40% (W/V) were orally administered at three times (Morning, Afternoon, Evening) a day for 5 days in 0.2 ml per 20 g body weight of a mouse at the same time. A change in body weight was measured to all of the animals during the test at one time per day; the fixed amount of feeds was provided at the day of measuring body weight, and then an average amount of intake per an animal (g/mouse/day) was calculated by measuring a residual amount of feeds at the next day.

high fat diet-mouse [3] = test: Change of liver weight and body fat by oral administration in high fat diet-mouse; type: in vivo; details: oral for 5 days
Procedure: […] The mice were killed by using CO2 gas; their abdomens were cut; their subcutaneous fats, genital fats, intra-abdominal fats, and livers were isolated; then their weights were measured using a chemical balance; average weight of five animals was calculated.

normal mouse (ICR) = test: Oral glucose tolerance test; type: in vivo; details: for Rate of Suppression (%): vs control group
From the text: An oral glucose tolerance test system is to comprehensively predict whether or not a sample has an effect on suppressing a sharp increase of blood sugar induced by intaking glucose after an oral-administration of the sample to a mouse, activities of suppressing glycolysis/glucose absorption, etc.
A normal mouse [ICR, 6W, Coretech Inc., Korea] was accommodated for 1 week, and then approximately 18˜20 g female with 7 age of the week mouse was used. 6 mice were assigned for one experimental group and starved for 16 hours to use. Hydroxypropyl-β-cyclodextrin (HPBCD) was dissolved in sterilized distilled water to be 20% (W/V) concentration, and then oral-administered in 0.2 mL per 20 g body weight of a mouse. And then, the glucose dissolved in physiological saline was oral-administered to mice in a liquid amount of 10 ml/kg to inject 2 g/kg after 15, 30, 60, and 90 minutes, respectively. The levels of blood sugars were measured just before administering glucose (0 hour), and at 15, 60, and 120 minutes after administering glucose. Blood for measuring blood sugar was collected from orbital venous of the mouse using a capillary tube. The blood sugar in the collected blood was measured using a measuring instrument, […] ALPHA (Boehringer mannheim Co.). The same amount of sterilized distilled water was administered for the control group.

Solubility in water = details: at 25° C.
[4] = 20% (W/V) oral (−)15 min. before glucose 2 g/kg
[5] = 20% (W/V) oral (−)30 min. before glucose 2 g/kg
[6] = 20% (W/V) oral (−)60 min. before glucose 2 g/kg
[7] = 20% (W/V) oral (−)90 min. before glucose 2 g/kg

**Q.** With 2-hydroxypropyl-β-cyclodextrin [HPBCD] as the substance, how does the “Change in body weight (%)” value ([1]; 1 Day) read?
**A.** 96.1 ± 1.1 %

**Q.** What about the “Change in body weight (%)” value ([1]; 3 Day) of the same substance?
**A.** 90.9 ± 2.3 %

**Q.** And the “Amount of Feed Intake (g/mouse/day)” value (high fat diet-mouse [2]; 10% (w/v) oral three times a day, 1 Day)?
**A.** 3.0 ± 0.2 g/mouse/day

**Q.** What about the “Amount of Feed Intake (g/mouse/day)” value (high fat diet-mouse [2]; 10% (w/v) oral three times a day, 2 Day) of the same substance?
**A.** 2.8 ± 0.3 g/mouse/day

**Q.** What about the “Amount of Feed Intake (g/mouse/day)” value (high fat diet-mouse [2]; 10% (w/v) oral three times a day, 3 Day) of the same substance?
**A.** 2.9 ± 0.5 g/mouse/day

**Q.** And the “Amount of Feed Intake (g/mouse/day)” value (high fat diet-mouse [2]; 10% (w/v) oral three times a day, 4 Day)?
**A.** 2.7 ± 0.5 g/mouse/day

**Q.** What about the “Amount of Feed Intake (g/mouse/day)” value (high fat diet-mouse [2]; 10% (w/v) oral three times a day, 5 Day) of the same substance?
**A.** 2.7 ± 0.5 g/mouse/day

**Q.** And the “amount of dietary intake” value (high fat diet-mouse [2]; 10, 20, 40% (W/V) oral)?
**A.** temporary effect on decreasing an amount of dietary intake

**Q.** What about the “Amount of Feed Intake (g/mouse/day)” value (high fat diet-mouse [2]; 20% (w/v) oral three times a day, 1 Day) of the same substance?
**A.** 2.4 ± 0.4 g/mouse/day

**Q.** What about the “Amount of Feed Intake (g/mouse/day)” value (high fat diet-mouse [2]; 20% (w/v) oral three times a day, 2 Day) of the same substance?
**A.** 2.1 ± 0.4 g/mouse/day

**Q.** What about the “Amount of Feed Intake (g/mouse/day)” value (high fat diet-mouse [2]; 20% (w/v) oral three times a day, 3 Day) of the same substance?
**A.** 2.5 ± 0.4 g/mouse/day

**Q.** And the “Amount of Feed Intake (g/mouse/day)” value (high fat diet-mouse [2]; 20% (w/v) oral three times a day, 4 Day)?
**A.** 2.6 ± 0.2 g/mouse/day

**Q.** What about the “Amount of Feed Intake (g/mouse/day)” value (high fat diet-mouse [2]; 20% (w/v) oral three times a day, 5 Day) of the same substance?
**A.** 2.1 ± 0.4 g/mouse/day

**Q.** And the “Amount of Feed Intake (g/mouse/day)” value (high fat diet-mouse [2]; 40% (w/v) oral three times a day, 1 Day)?
**A.** 1.8 ± 0.5 g/mouse/day

**Q.** What about the “Amount of Feed Intake (g/mouse/day)” value (high fat diet-mouse [2]; 40% (w/v) oral three times a day, 2 Day) of the same substance?
**A.** 2.0 ± 0.5 g/mouse/day

**Q.** What about the “Amount of Feed Intake (g/mouse/day)” value (high fat diet-mouse [2]; 40% (w/v) oral three times a day, 3 Day) of the same substance?
**A.** 2.7 ± 0.6 g/mouse/day

**Q.** What about the “Amount of Feed Intake (g/mouse/day)” value (high fat diet-mouse [2]; 40% (w/v) oral three times a day, 4 Day) of the same substance?
**A.** 2.5 ± 0.3 g/mouse/day

**Q.** And the “Amount of Feed Intake (g/mouse/day)” value (high fat diet-mouse [2]; 40% (w/v) oral three times a day, 5 Day)?
**A.** 2.6 ± 0.3 g/mouse/day

**Q.** And the “Total Amount of Fat” value (high fat diet-mouse [3]; 10% (w/v))?
**A.** 1233.9 ± 244.8 mg

**Q.** What about the “Weight of Genital Fat” value (high fat diet-mouse [3]; 10% (w/v)) of the same substance?
**A.** 473.3 ± 99.6 mg

**Q.** And the “Weight of Intra-abdominal Fat” value (high fat diet-mouse [3]; 10% (w/v))?
**A.** 113.0 ± 31.5 mg

**Q.** And the “Weight of Liver” value (high fat diet-mouse [3]; 10% (w/v))?
**A.** 1011.1 ± 33.5 mg

**Q.** What about the “Weight of Subcutaneous Fat” value (high fat diet-mouse [3]; 10% (w/v)) of the same substance?
**A.** 647.6 ± 119.5 mg

**Q.** What about the “Total Amount of Fat” value (high fat diet-mouse [3]; 15% (w/v)) of the same substance?
**A.** 795.8 ± 90.1 mg

**Q.** What about the “Weight of Genital Fat” value (high fat diet-mouse [3]; 15% (w/v)) of the same substance?
**A.** 319.6 ± 46.5 mg

**Q.** What about the “Weight of Liver” value (high fat diet-mouse [3]; 15% (w/v)) of the same substance?
**A.** 960.2 ± 44.6 mg

**Q.** And the “Weight of Subcutaneous Fat” value (high fat diet-mouse [3]; 15% (w/v))?
**A.** 411.3 ± 43.9 mg

**Q.** And the “Total Amount of Fat” value (high fat diet-mouse [3]; 20% (w/v))?
**A.** 666.9 ± 75.3 mg

**Q.** And the “Weight of Genital Fat” value (high fat diet-mouse [3]; 20% (w/v))?
**A.** 240.8 ± 45.5 mg

**Q.** What about the “Weight of Intra-abdominal Fat” value (high fat diet-mouse [3]; 20% (w/v)) of the same substance?
**A.** 43.9 ± 9.3 mg

**Q.** What about the “Weight of Liver” value (high fat diet-mouse [3]; 20% (w/v)) of the same substance?
**A.** 990.1 ± 35.1 mg

**Q.** And the “Weight of Subcutaneous Fat” value (high fat diet-mouse [3]; 20% (w/v))?
**A.** 382.1 ± 38.3 mg

**Q.** And the “weight of liver vs control group” value (high fat diet-mouse [3])?
**A.** decreased depending on the concentrations

**Q.** What about the “Increasing Amount of Blood Sugar (15 min.~0 hour)” value (“Increasing Amount of Blood Sugar” for short) (normal mouse (ICR); [4]) of the same substance?
**A.** 190.0 mg/dL

**Q.** And the “Level of Blood Sugar Before and After Administration of D-glucose (mg/dl), 0 Hour” value (“Level … 0 Hour” for short) (normal mouse (ICR); [4])?
**A.** 74.8 mg/dL

**Q.** And the “Level of Blood Sugar Before and After Administration of D-glucose (mg/dl), 15 min.” value (“Level … 15 min.” for short) (normal mouse (ICR); [4])?
**A.** 264.8 mg/dL

**Q.** What about the “Rate of Suppression (%)” value (normal mouse (ICR); [4]) of the same substance?
**A.** 19.7%

**Q.** What about the “Increasing Amount of Blood Sugar” value (normal mouse (ICR); [5]) of the same substance?
**A.** 191.0 mg/dL

**Q.** What about the “Level … 0 Hour” value (normal mouse (ICR); [5]) of the same substance?
**A.** 83.3 mg/dL

**Q.** And the “Level … 15 min.” value (normal mouse (ICR); [5])?
**A.** 274.3 mg/dL

**Q.** And the “Rate of Suppression (%)” value (normal mouse (ICR); [5])?
**A.** 19.3%

**Q.** And the “Increasing Amount of Blood Sugar” value (normal mouse (ICR); [6])?
**A.** 184.5 mg/dL

**Q.** And the “Level … 0 Hour” value (normal mouse (ICR); [6])?
**A.** 83.3 mg/dL

**Q.** What about the “Level … 15 min.” value (normal mouse (ICR); [6]) of the same substance?
**A.** 267.8 mg/dL

**Q.** And the “Rate of Suppression (%)” value (normal mouse (ICR); [6])?
**A.** 22.0%

**Q.** What about the “Increasing Amount of Blood Sugar” value (normal mouse (ICR); [7]) of the same substance?
**A.** 180.7 mg/dL

**Q.** And the “Level … 0 Hour” value (normal mouse (ICR); [7])?
**A.** 78.3 mg/dL

**Q.** And the “Level … 15 min.” value (normal mouse (ICR); [7])?
**A.** 259.0 mg/dL

**Q.** What about the “Rate of Suppression (%)” value (normal mouse (ICR); [7]) of the same substance?
**A.** 23.7%

**Q.** And the “blood sugar caused by intaking glucose suppressed as compared with the control group” value (normal mouse (ICR); oral, all pre-treatment times)?
**A.** 19˜24%

**Q.** What about the Solubility (Solubility in water) of the same substance?
**A.** > 600 mg/mL
